Experimental data taken from patent US12077503B2, “Substituted cyclic amides and their use as herbicides” (FMC CORPORATION, priority 2015, dated 2024).

How the values were obtained:
Format in all cases: in vivo
[1] = test system: horseweed (Conyza canadensis); experiment: Test E preemergence; settings: scale 0 to 100
How it was run: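 Preemergence to seeds in silt loam, or postemergence to 1- to 4-leaf plants in peat-based potting mix; compound formulated in non-phytotoxic solvent plus surfactant. Greenhouse, 14–21 d. Visual injury vs. controls, 0 = no effect, 100 = complete control.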

[2] = test system: ducksalad (Heteranthera limosa); experiment: Test C flooded paddy test; settings: Flood, 0 is no effect, 100 is complete control
How it was run: (§1)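 Plants grown to the 2-leaf stage in pots flooded to 3 cm above soil; compounds applied directly into the paddy water, depth held throughout. After 13 to 15 d in greenhouse, injury visually rated against untreated controls on a 0–100 scale (0 no effect, 100 complete control).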

[3] = test system: sedge, umbrella (small-flower umbrella sedge, Cyperus difformis); experiment: Test C flooded paddy test; settings: Flood, 0 is no effect, 100 is complete control
How it was run: as §1

[4] = test system: barnyardgrass (Echinochloa crus-galli); experiment: Test C flooded paddy test; settings: Flood, 0 is no effect, 100 is complete control
How it was run: as §1

[5] = test system: rice (Oryza sativa); experiment: Test C flooded paddy test; settings: Flood, 0 is no effect, 100 is complete control
How it was run: as §1

[6] = test system: bearded sprangletop (Leptochloa fascicularis); experiment: Test F flooded paddy test; parameters: key: 0 = no effect, 100 = complete control; settings: Flood
Excerpt: (§2) Plant species in the flooded paddy test consisted of one stand of 9 or 10 water seeded rice seedlings (Rice, W. S. Jap, Oryza sativa cv. ‘Japonica—M202’ or Rice, W. S. Ind, ‘Indica’), and two stands of 3 or 4 transplanted rice seedlings (Oryza sativa cv. ‘Japonica—M202’), Monochoria (Monochoria vaginalis), sedge, umbrella (small-flower umbrella sedge, Cyperus difformis), hardstem bulrush (Scirpus juncoides), redstem (purple redstem, Ammannia coccinea), rice flatsedge (Cyperus iria), bearded sprangletop (Leptochloa fascicularis), barnyardgrass (Echinochloa crus-galli), waterplantain (common waterplantain, Alisma plantago-aquatica), and late watergrass (Echinochloa oryzicola) grown to the 2 to 2.5 leaf stage for testing. Potted plants were grown in a greenhouse with day/night temperature settings of 30/27° C., and supplemental balanced lighting was provided to maintain a 16-hour photoperiod. At time of treatment, test pots were flooded to 3 cm above the soil surface, treated by application of test compounds directly to the paddy water, and then maintained at that water depth for the duration of the test. Effects of treatments on rice and weeds were visually evaluated by comparison to untreated controls after 21 d. Plant response ratings, summarized in Table F, are based on a scale of 0 to 100 where 0 is no effect and 100 is complete control. A dash (-) response means no test result.

[7] = test system: water seeded rice seedlings (Rice, W. S. Jap, Oryza sativa cv. ‘Japonica—M202’); experiment: Test F flooded paddy test; parameters: key: 0 = no effect, 100 = complete control; settings: Flood
Excerpt: as §2

[8] = test system: barnyardgrass (Echinochloa crus-galli); experiment: Test F flooded paddy test; parameters: key: 0 = no effect, 100 = complete control; settings: Flood
Excerpt: as §2

[9] = test system: late watergrass (Echinochloa oryzicola); experiment: Test F flooded paddy test; parameters: key: 0 = no effect, 100 = complete control; settings: Flood
Excerpt: as §2

[10] = test system: Monochoria (Monochoria vaginalis); experiment: Test F flooded paddy test; parameters: key: 0 = no effect, 100 = complete control; settings: Flood
Excerpt: as §2

[11] = test system: transplanted rice seedlings (Oryza sativa cv. ‘Japonica—M202’); experiment: Test F flooded paddy test; parameters: key: 0 = no effect, 100 = complete control; settings: Flood
Excerpt: as §2

With CN1C[C@H](c2ccc(C(F)(F)F)cc2)[C@@H](C(=O)Nc2cccc(F)c2F)C1=O [Compound 623, (3S,4S)—N-(2,3-difluorophenyl)-1-methyl-2-oxo-4-[4-(trifluoromethyl)phenyl]-3-pyrrolidinecarboxamide] the “Plant response rating: Horseweed” value ([1]; 31 g ai/ha) was 80, the “Plant response rating: Horseweed” value ([1]; 62 g ai/ha) was 90 and the “Plant response rating: Horseweed” value ([1]; 125 g ai/ha) was 90. The “Plant response rating: Horseweed” value ([1]; 250 g ai/ha) was 90.
In the case of CN1C[C@H](c2ccc(F)c(F)c2)[C@@H](C(=O)Nc2ccccc2F)C1=O [Compound 596, (3S,4S)-4-(3,4-difluorophenyl)-N-(2-fluorophenyl)-1-methyl-2-oxo-3-pyrrolidinecarboxamide], the “Plant response rating (scale of 0 to 100), Ducksalad” value (“Plant response rating … Ducksalad” for short) ([2]; 31 g ai/ha) is reported as 30, the “Plant response rating … Ducksalad” value ([2]; 62 g ai/ha) is reported as 60 and the “Plant response rating … Ducksalad” value ([2]; 125 g ai/ha) is reported as 90. For the same molecule, the “Plant response rating … Ducksalad” value ([2]; 250 g ai/ha) was 100, the “Plant response rating (scale of 0 to 100), Sedge, Umbrella” value (“Plant response rating … Umbrella” below) ([3]; 31 g ai/ha) was 0 and the “Plant response rating … Umbrella” value ([3]; 62 g ai/ha) was 0. For the same molecule, the “Plant response rating … Umbrella” value ([3]; 125 g ai/ha) was 0, the “Plant response rating … Umbrella” value ([3]; 250 g ai/ha) was 0 and the “Plant response rating (scale of 0 to 100), Barnyardgrass” value ([4]; 31 g ai/ha) was 0. The “Plant response rating (scale of 0 to 100), Barnyardgrass” value ([4]; 62 g ai/ha) was 60, the “Plant response rating (scale of 0 to 100), Barnyardgrass” value ([4]; 125 g ai/ha) was 75 and the “Plant response rating (scale of 0 to 100), Barnyardgrass” value ([4]; 250 g ai/ha) was 85. The “Plant response rating (scale of 0 to 100), Rice” value ([5]; 31 g ai/ha) was 0, the “Plant response rating (scale of 0 to 100), Rice” value ([5]; 62 g ai/ha) was 0 and the “Plant response rating (scale of 0 to 100), Rice” value ([5]; 125 g ai/ha) was 10. For the same molecule, the “Plant response rating (scale of 0 to 100), Rice” value ([5]; 250 g ai/ha) was 10, the “Plant response rating: Sprangletop, Brdd.” value ([6]; 16 g ai/ha) was 0 and the “Plant response rating: Sprangletop, Brdd.” value ([6]; 32 g ai/ha) was 40. The “Plant response rating: Sprangletop, Brdd.” value ([6]; 64 g ai/ha) was 85, the “Plant response rating: Sprangletop, Brdd.” value ([6]; 125 g ai/ha) was 85 and the “Plant response rating: Sprangletop, Brdd.” value ([6]; 250 g ai/ha) was 95. The “Plant response rating: Rice, Water Seeded” value ([7]; 16 g ai/ha) was 0, the “Plant response rating: Rice, Water Seeded” value ([7]; 32 g ai/ha) was 0 and the “Plant response rating: Rice, Water Seed.” value ([7]; 64 g ai/ha) was 10. For the same molecule, the “Plant response rating: Rice, Water Seed.” value ([7]; 125 g ai/ha) was 10, the “Plant response rating: Rice, Water Seeded” value ([7]; 250 g ai/ha) was 15 and the “Plant response rating: Barnyardgrass” value ([8]; 16 g ai/ha) was 45. The “Plant response rating: Barnyardgrass” value ([8]; 32 g ai/ha) was 65, the “Plant response rating: Barnyardgrass” value ([8]; 64 g ai/ha) was 100 and the “Plant response rating: Barnyardgrass” value ([8]; 125 g ai/ha) was 100. The “Plant response rating: Barnyardgrass” value ([8]; 250 g ai/ha) was 100, the “Plant response rating: Watergrass, Late” value ([9]; 16 g ai/ha) was 15 and the “Plant response rating: Watergrass, Late” value ([9]; 32 g ai/ha) was 40. For the same molecule, the “Plant response rating: Watergrass, Late” value ([9]; 64 g ai/ha) was 85, the “Plant response rating: Watergrass, Late” value ([9]; 125 g ai/ha) was 100 and the “Plant response rating: Watergrass, Late” value ([9]; 250 g ai/ha) was 100. The “Plant response rating: Monochoria” value ([10]; 16 g ai/ha) was 25, the “Plant response rating: Monochoria” value ([10]; 32 g ai/ha) was 45 and the “Plant response rating: Monochoria” value ([10]; 64 g ai/ha) was 100. For the same molecule, the “Plant response rating: Monochoria” value ([10]; 125 g ai/ha) was 100, the “Plant response rating: Monochoria” value ([10]; 250 g ai/ha) was 100 and the “Plant response rating: Rice, Transplanted” value ([11]; 16 g ai/ha) was 0. The “Plant response rating: Rice, Transplanted” value ([11]; 32 g ai/ha) was 0, the “Plant response rating: Rice, Transplanted” value ([11]; 64 g ai/ha) was 0 and the “Plant response rating: Rice, Transplanted” value ([11]; 125 g ai/ha) was 0. For the same molecule, the “Plant response rating: Rice, Transplanted” value ([11]; 250 g ai/ha) was 0.
